Assay results published in ChEMBL document CHEMBL4325844, “Development of 2-amino-4-phenylthiazole analogues to disrupt myeloid differentiation factor 88 and prevent inflammatory responses in acute lung injury” (Eur J Med Chem, 2019).
The source made the active and inactive calls. No cut-off for these calls is given here.

How the values were obtained:
[1] = Cytotoxicity against ICR mouse primary peritoneal macrophages assessed as cell viability at 20 uM after 24 hrs by MTT assay relative to control; format: cell-based, Peritoneal macrophage; settings: read-out: Activity
[2] = biological target: T1, Myeloid differentiation primary response protein MyD88 (Homo sapiens, UniProt Q99836); assay: Potency index, ratio of TJ-M2010-5 Kd to test compound Kd for recombinant human MyD88 TIR domain (157 to 296 residues) expressed in Escherichia coli BL21(DE3)
T1 sequence (Q99836 whole entry, the tested form may be a part): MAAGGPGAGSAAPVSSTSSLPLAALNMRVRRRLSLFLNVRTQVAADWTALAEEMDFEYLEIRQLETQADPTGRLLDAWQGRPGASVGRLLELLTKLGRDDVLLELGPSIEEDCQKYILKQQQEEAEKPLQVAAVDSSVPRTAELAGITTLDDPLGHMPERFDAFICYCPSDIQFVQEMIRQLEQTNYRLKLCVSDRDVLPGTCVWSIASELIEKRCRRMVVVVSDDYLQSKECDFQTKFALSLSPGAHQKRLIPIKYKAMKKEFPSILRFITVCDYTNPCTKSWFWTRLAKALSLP

[3] = biological target: Myeloid differentiation primary response protein MyD88 (Mus musculus) (UniProt P22366); assay: Inhibition of MyD88 in ICR mouse primary peritoneal macrophages assessed as reduction in LPS-induced ERK phosphorylation at 20 uM preincubated for 30 mins followed by LPS-stimulation and measured after 20 mins by Western blot analysis
Chain of Myeloid differentiation primary response protein MyD88 (Mus musculus) (P22366 whole entry, the tested form may be a part): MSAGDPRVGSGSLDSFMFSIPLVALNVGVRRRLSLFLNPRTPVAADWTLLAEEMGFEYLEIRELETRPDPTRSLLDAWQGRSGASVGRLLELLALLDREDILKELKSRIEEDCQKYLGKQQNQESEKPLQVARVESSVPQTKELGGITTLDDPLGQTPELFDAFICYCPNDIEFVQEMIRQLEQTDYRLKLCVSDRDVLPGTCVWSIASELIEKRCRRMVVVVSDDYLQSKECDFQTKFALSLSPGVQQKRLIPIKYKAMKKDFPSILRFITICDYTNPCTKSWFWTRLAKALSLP

[4] = biological target: Myeloid differentiation primary response protein MyD88 (Mus musculus) (UniProt P22366); assay: Inhibition of MyD88 in ICR mouse primary peritoneal macrophages assessed as reduction in LPS-induced p38 MAPK phosphorylation at 20 uM preincubated for 30 mins followed by LPS-stimulation and measured after 20 mins by Western blot analysis
[5] = biological target: Toll-like receptor 4 (Homo sapiens) (UniProt O00206); assay: Binding affinity to recombinant human 10His-tagged TLR4 (24 to 631 residues) by SPR assay
Chain of Toll-like receptor 4 (Homo sapiens) (O00206 whole entry, the tested form may be a part): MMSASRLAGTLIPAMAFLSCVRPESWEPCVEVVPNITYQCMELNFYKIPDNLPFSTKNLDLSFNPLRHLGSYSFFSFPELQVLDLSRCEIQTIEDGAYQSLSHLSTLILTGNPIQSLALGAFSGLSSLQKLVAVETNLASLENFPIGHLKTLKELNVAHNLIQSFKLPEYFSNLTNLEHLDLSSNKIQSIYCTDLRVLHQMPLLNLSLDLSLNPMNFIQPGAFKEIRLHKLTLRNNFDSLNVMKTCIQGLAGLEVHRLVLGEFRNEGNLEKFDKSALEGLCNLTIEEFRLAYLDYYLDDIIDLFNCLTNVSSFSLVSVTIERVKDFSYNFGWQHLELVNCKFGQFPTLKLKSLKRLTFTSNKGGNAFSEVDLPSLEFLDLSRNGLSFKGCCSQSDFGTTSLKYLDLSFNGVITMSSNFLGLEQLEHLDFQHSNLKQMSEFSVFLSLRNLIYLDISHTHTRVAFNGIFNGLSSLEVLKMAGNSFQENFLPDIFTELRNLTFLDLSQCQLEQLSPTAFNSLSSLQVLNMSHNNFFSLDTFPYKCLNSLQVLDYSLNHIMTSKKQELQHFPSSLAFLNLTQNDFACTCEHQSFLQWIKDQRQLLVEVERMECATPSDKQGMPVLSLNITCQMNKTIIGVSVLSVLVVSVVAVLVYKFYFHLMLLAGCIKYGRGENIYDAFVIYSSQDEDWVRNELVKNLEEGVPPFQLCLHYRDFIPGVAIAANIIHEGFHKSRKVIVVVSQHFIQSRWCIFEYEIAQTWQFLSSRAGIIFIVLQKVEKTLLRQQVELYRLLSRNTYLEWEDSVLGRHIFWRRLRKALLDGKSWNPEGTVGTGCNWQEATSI

[6] = biological target: Myeloid differentiation primary response protein MyD88 (Mus musculus) (UniProt P22366); assay: Inhibition of MyD88 in ICR mouse primary peritoneal macrophages assessed as reduction in LPS-induced NFkappaB translocation at 20 uM preincubated for 30 mins followed by LPS-stimulation and measured after 20 mins by immunofluorescence microscopic analysis
[7] = Cytotoxicity against rat H9c2 cells assessed as cell viability at 20 uM after 24 hrs by MTT assay relative to control; format: cell-based; settings: read-out: Activity
[8] = biological target: Myeloid differentiation primary response protein MyD88 (Mus musculus) (UniProt P22366); assay: Inhibition of MyD88 in ICR mouse primary peritoneal macrophages assessed as reduction in LPS-induced IkappaB levels at 20 uM preincubated for 30 mins followed by LPS-stimulation and measured after 20 mins by Western blot analysis
[9] = test system: Peritoneal macrophage; assay: Potency index, ratio of TJ-M2010-5 IC50 to test compound IC50 for inhibition of LPS-induced TNFalpha production in ICR mouse primary peritoneal macrophages; format: functional
[10] = biological target: Toll-like receptor 4/Ly96 (Mus musculus) (UniProt Q9QUK6+Q9JHF9); assay: Inhibition of TLR4/MD2 interaction in LPS-induced mouse RAW264.7 at 20 uM measured after 30 mins by co-immunoprecipitation method; format: cell-based
[11] = test system: Peritoneal macrophage; assay: Antiinflammatory activity in ICR mouse primary peritoneal macrophages assessed as inhibition of LPS-induced IL-6 production preincubated for 2 hrs followed by LPS stimulation and measured after 22 hrs by ELISA; format: functional, cell-based
[12] = biological target: Myeloid differentiation primary response protein MyD88 (Mus musculus) (UniProt P22366); assay: Inhibition of MyD88 in mouse RAW264.7 cells expressing EGFP-fused NFkappaB at 10 uM preincubated for 30 mins followed by LPS-stimulation and measured after 1 hr by fluorescence assay; format: cell-based
[13] = test system: Mus musculus; assay: Antiinflammatory activity in LPS-induced C57/BL6 mouse model of acute lung injury assessed as reduction in lung wet/dry ratio at 10 mg/kg, ip pretreated for 30 mins followed by LPS challenge measured after 6 hrs; format: functional, organism-based
[14] = test system: Mus musculus; assay: Antiinflammatory activity in LPS-induced C57/BL6 mouse model of acute lung injury assessed as reduction in ICAM1 mRNA expression at 10 mg/kg, ip pretreated for 30 mins followed by LPS challenge measured after 6 hrs by SYBR green dye based RT-qPCR analysis; format: functional, organism-based
[15] = test system: Peritoneal macrophage; assay: Antiinflammatory activity in ICR mouse primary peritoneal macrophages assessed as inhibition of LPS-induced TNFalpha production at 20 uM preincubated for 60 mins followed by LPS stimulation and measured after 24 hrs by ELISA relative to control; format: functional
[16] = biological target: Toll-like receptor 4/MD-2 (Homo sapiens) (UniProt O00206+Q9Y6Y9); assay: Inhibition of LPS-induced HA/FLAG-tagged TLR4 (unknown origin) interaction with MD2 (unknown origin) expressed in HEK293 cells at 20 uM after 48 hrs by co-immunoprecipitation method; format: cell-based
[17] = test system: Mus musculus; assay: Antiinflammatory activity in LPS-induced C57/BL6 mouse model of acute lung injury assessed as reduction in TNFalpha level in serum at 10 mg/kg, ip pretreated for 30 mins followed by LPS challenge measured after 6 hrs by ELISA; format: functional, organism-based
[18] = test system: Mus musculus; assay: Antiinflammatory activity in LPS-induced C57/BL6 mouse model of acute lung injury assessed as reduction in neutrophil inflammatory infiltration at 10 mg/kg, ip pretreated for 30 mins followed by LPS challenge measured after 6 hrs by F4/80/hematoxylin staining based microscopic analysis; format: functional, organism-based
[19] = test system: Mus musculus; assay: Antiinflammatory activity in LPS-induced C57/BL6 mouse model of acute lung injury assessed as reduction in IL6 level in serum at 10 mg/kg, ip pretreated for 30 mins followed by LPS challenge measured after 6 hrs by ELISA; format: functional, organism-based
[20] = test system: Mus musculus; assay: Antiinflammatory activity in LPS-induced C57/BL6 mouse model of acute lung injury assessed as reduction in inflammatory infiltration at 10 mg/kg, ip pretreated for 30 mins followed by LPS challenge measured after 6 hrs by hematoxylin and eosin staining based microscopic analysis; format: functional, organism-based
[21] = biological target: Myeloid differentiation primary response protein MyD88 (Mus musculus) (UniProt P22366); assay: Inhibition of MyD88 in ICR mouse primary peritoneal macrophages assessed as reduction in LPS-induced JNK phosphorylation at 20 uM preincubated for 30 mins followed by LPS-stimulation and measured after 20 mins by Western blot analysis
[22] = test system: Mus musculus; assay: Antiinflammatory activity in LPS-induced C57/BL6 mouse model of acute lung injury assessed as reduction in TNFalpha level in BALF at 10 mg/kg, ip pretreated for 30 mins followed by LPS challenge measured after 6 hrs by ELISA; format: functional, organism-based
[23] = biological target: T1, Myeloid differentiation primary response protein MyD88; assay: Inhibition of LPS-induced HA-tagged MyD88 (unknown origin) interaction with FLAG-tagged MyD88 (unknown origin) expressed in HEK293 cells at 20 uM after 48 hrs by co-immunoprecipitation method; format: cell-based
[24] = biological target: T1, Myeloid differentiation primary response protein MyD88; assay: Binding affinity to recombinant human MyD88 TIR domain (157 to 296 residues) expressed in Escherichia coli BL21(DE3) by surface plasmon resonance analysis
[25] = test system: Mus musculus; assay: Antiinflammatory activity in LPS-induced C57/BL6 mouse model of acute lung injury assessed as reduction in total protein levels in BALF at 10 mg/kg, ip pretreated for 30 mins followed by LPS challenge measured after 6 hrs; format: functional, organism-based
[26] = test system: Mus musculus; assay: Antiinflammatory activity in LPS-induced C57/BL6 mouse model of acute lung injury assessed as reduction in macrophage inflammatory infiltration at 10 mg/kg, ip pretreated for 30 mins followed by LPS challenge measured after 6 hrs by F4/80/hematoxylin staining based microscopic analysis; format: functional, organism-based
[27] = test system: Mus musculus; assay: Antiinflammatory activity in LPS-induced C57/BL6 mouse model of acute lung injury assessed as reduction in IL6 level in BALF at 10 mg/kg, ip pretreated for 30 mins followed by LPS challenge measured after 6 hrs by ELISA; format: functional, organism-based
[28] = Cytotoxicity against rat NRK cells assessed as cell viability at 20 uM after 24 hrs by MTT assay relative to control; format: cell-based; settings: read-out: Activity

Ratio [2]: 5
inhibition [3]: Active
inhibition [4]: Active
Activity [5]: inactive
inhibition [6]: Active
inhibition [8]: Active
inhibition [10]: inactive
IC50 [11]: 2.52 µM
inhibition [12]: Active
inhibition [16]: inactive
inhibition [21]: Active
inhibition [23]: Active
Activity [24]: Dose-dependent effect
Ka [24]: 4830 M⁻¹ s⁻¹
Kd [24]: 34.5 µM
Kdiss [24]: 0.167 s⁻¹
SMILES: COc1cc(-c2csc(NC(=O)CCN3CCN(Cc4cccc([N+](=O)[O-])c4)CC3)n2)ccc1O
viability at 24 h, 20 µM [1]: > 80%
viability at 24 h, 20 µM [7]: > 80%
Ratio IC50 [9]: 13
inhibition [11]: Dose-dependent effect
Activity [13]: Active
Activity [14]: Active
inhibition at 20 µM [15]: 90.4%
Activity [17]: Active
Activity [18]: Active
Activity [19]: Active
Activity [20]: Active
Activity [22]: Active
Activity [25]: Active
Activity [26]: Active
Activity [27]: Active
viability at 24 h, 20 µM [28]: > 80%
